± gives the uncertainty stated by the source.
Experiment: xn = mol fraction of the nth substance listed

CC(O)CO (stereo not drawn) + CS(C)=O
viscosity [mPa·s], 100 kPa
Conditions	293.15 K	298.15 K	303.15 K	308.15 K	313.15 K	318.15 K
x1 = 0.0513	2.52 ± 0.03	2.24 ± 0.03	2.04 ± 0.02	1.8 ± 0.02	1.65 ± 0.02	1.55 ± 0.02
x1 = 0.1024	2.82 ± 0.03	2.51 ± 0.03	2.28 ± 0.03	1.99 ± 0.02	1.82 ± 0.02	1.7 ± 0.02
x1 = 0.1534	3.19 ± 0.04	2.82 ± 0.03	2.55 ± 0.03	2.21 ± 0.03	2.01 ± 0.02	1.87 ± 0.02
x1 = 0.2043	3.61 ± 0.04	3.17 ± 0.04	2.86 ± 0.03	2.44 ± 0.03	2.22 ± 0.03	2.06 ± 0.02
x1 = 0.255	4.08 ± 0.05	3.54 ± 0.04	3.19 ± 0.04	2.72 ± 0.03	2.46 ± 0.03	2.27 ± 0.03
x1 = 0.3056	4.63 ± 0.05	4 ± 0.05	3.58 ± 0.04	3.02 ± 0.04	2.72 ± 0.03	–
x1 = 0.356	5.31 ± 0.06	4.56 ± 0.05	4.03 ± 0.05	3.38 ± 0.04	3.04 ± 0.04	–
x1 = 0.4064	6.1 ± 0.07	5.21 ± 0.06	4.56 ± 0.05	3.82 ± 0.04	3.39 ± 0.04	–
x1 = 0.4566	7.04 ± 0.08	5.93 ± 0.07	5.17 ± 0.06	4.28 ± 0.05	3.8 ± 0.04	–
x1 = 0.5066	8.19 ± 0.09	6.88 ± 0.08	5.94 ± 0.07	4.84 ± 0.06	4.25 ± 0.05	–
x1 = 0.5565	9.53 ± 0.11	7.93 ± 0.09	6.78 ± 0.08	5.52 ± 0.06	4.8 ± 0.06	–
x1 = 0.6063	11.3 ± 0.1	9.3 ± 0.11	7.84 ± 0.09	6.36 ± 0.07	5.45 ± 0.06	–
x1 = 0.6556	13.5 ± 0.2	11 ± 0.1	9.26 ± 0.11	7.35 ± 0.08	6.26 ± 0.07	–
x1 = 0.7055	16.3 ± 0.2	13.1 ± 0.2	10.9 ± 0.1	8.58 ± 0.1	7.23 ± 0.08	–
x1 = 0.7549	19.9 ± 0.2	15.8 ± 0.2	12.8 ± 0.2	10.1 ± 0.1	8.38 ± 0.1	–
x1 = 0.8042	24.4 ± 0.3	19 ± 0.2	15.4 ± 0.2	12 ± 0.1	9.8 ± 0.11	–
x1 = 0.8533	30.1 ± 0.3	23.2 ± 0.3	18.5 ± 0.2	14.3 ± 0.2	11.5 ± 0.1	–
x1 = 0.9024	37.7 ± 0.4	28.7 ± 0.3	22.7 ± 0.3	17.2 ± 0.2	13.7 ± 0.2	–
x1 = 0.9512	47.5 ± 0.5	35.5 ± 0.4	27.6 ± 0.3	20.7 ± 0.2	16.2 ± 0.2	–

CC(O)CO (stereo not drawn) + O
Conditions	viscosity [mPa·s]
293.15 K, 101 kPa, x1 = 0.0256	1.469 ± 0.036
293.15 K, 101 kPa, x1 = 0.0558	2.125 ± 0.05
293.15 K, 101 kPa, x1 = 0.092	3.14 ± 0.072
293.15 K, 101 kPa, x1 = 0.1362	4.717 ± 0.1
293.15 K, 101 kPa, x1 = 0.1913	6.665 ± 0.14
293.15 K, 101 kPa, x1 = 0.2619	9.425 ± 0.18
293.15 K, 101 kPa, x1 = 0.3556	14.17 ± 0.24
293.15 K, 101 kPa, x1 = 0.4862	21.99 ± 0.31
293.15 K, 101 kPa, x1 = 0.6804	35.18 ± 0.34
298.15 K, 100 kPa, x1 = 0.2	5.452 ± 0.064
298.15 K, 100 kPa, x1 = 0.4	12.77 ± 0.15
298.15 K, 100 kPa, x1 = 0.6	21.63 ± 0.25
298.15 K, 100 kPa, x1 = 0.8	32.85 ± 0.38
298.15 K, 101 kPa, x1 = 0.197	5.634 ± 0.056
298.15 K, 101 kPa, x1 = 0.3086	9.397 ± 0.087
298.15 K, 101 kPa, x1 = 0.3774	12.17 ± 0.11
298.15 K, 101 kPa, x1 = 0.4524	15.52 ± 0.14
298.15 K, 101 kPa, x1 = 0.5109	18.22 ± 0.16
298.15 K, 101 kPa, x1 = 0.5926	22.24 ± 0.2
298.15 K, 101 kPa, x1 = 0.6898	27.16 ± 0.24
298.15 K, 101 kPa, x1 = 0.8043	33.02 ± 0.29
298.15 K, 101 kPa, x1 = 0.8747	36.98 ± 0.32
298.15 K, 101 kPa, x1 = 0.9466	41.1 ± 0.36
298.15 K, 101.3 kPa, x1 = 0.03	1.311 ± 0.036
298.15 K, 101.3 kPa, x1 = 0.06	1.851 ± 0.05
298.15 K, 101.3 kPa, x1 = 0.1	2.733 ± 0.072
298.15 K, 101.3 kPa, x1 = 0.12	3.233 ± 0.085
298.15 K, 101.3 kPa, x2 = 0.044	41.25 ± 0.2
303.15 K, 101 kPa, x1 = 0.0101	0.902 ± 0.009
303.15 K, 101 kPa, x1 = 0.02	1.022 ± 0.01
303.15 K, 101 kPa, x1 = 0.0256	1.133 ± 0.028
303.15 K, 101 kPa, x1 = 0.03	1.143 ± 0.011
303.15 K, 101 kPa, x1 = 0.0399	1.282 ± 0.012
303.15 K, 101 kPa, x1 = 0.0501	1.424 ± 0.013
303.15 K, 101 kPa, x1 = 0.0558	1.572 ± 0.037
303.15 K, 101 kPa, x1 = 0.0598	1.568 ± 0.014
303.15 K, 101 kPa, x1 = 0.07	1.726 ± 0.016
303.15 K, 101 kPa, x1 = 0.08	1.896 ± 0.017
303.15 K, 101 kPa, x1 = 0.0899	2.059 ± 0.019
303.15 K, 101 kPa, x1 = 0.092	2.236 ± 0.051
303.15 K, 101 kPa, x1 = 0.1	2.246 ± 0.02
303.15 K, 101 kPa, x1 = 0.1362	3.17 ± 0.07
303.15 K, 101 kPa, x1 = 0.1913	4.481 ± 0.093
303.15 K, 101 kPa, x1 = 0.2619	6.027 ± 0.12
303.15 K, 101 kPa, x1 = 0.3556	8.744 ± 0.15
303.15 K, 101 kPa, x1 = 0.4862	13.55 ± 0.19
303.15 K, 101 kPa, x1 = 0.6804	21 ± 0.21
303.15 K, 101 kPa, x2 = 0.97	1.143 ± 0.01
308.15 K, 101 kPa, x1 = 0.0101	0.81 ± 0.008
308.15 K, 101 kPa, x1 = 0.02	0.91 ± 0.009
308.15 K, 101 kPa, x1 = 0.0399	1.13 ± 0.011
308.15 K, 101 kPa, x1 = 0.0501	1.249 ± 0.012
308.15 K, 101 kPa, x1 = 0.0598	1.373 ± 0.013
308.15 K, 101 kPa, x1 = 0.07	1.499 ± 0.014
308.15 K, 101 kPa, x1 = 0.08	1.642 ± 0.015
308.15 K, 101 kPa, x1 = 0.0899	1.775 ± 0.016
308.15 K, 101 kPa, x1 = 0.1	1.927 ± 0.018
313.15 K, 101 kPa, x1 = 0.0101	0.732 ± 0.007
313.15 K, 101 kPa, x1 = 0.02	0.82 ± 0.008
313.15 K, 101 kPa, x1 = 0.0256	0.9114 ± 0.022
313.15 K, 101 kPa, x1 = 0.03	0.907 ± 0.009
313.15 K, 101 kPa, x1 = 0.0399	1.005 ± 0.01
313.15 K, 101 kPa, x1 = 0.0501	1.105 ± 0.01
313.15 K, 101 kPa, x1 = 0.0558	1.267 ± 0.03
313.15 K, 101 kPa, x1 = 0.0598	1.213 ± 0.011
313.15 K, 101 kPa, x1 = 0.07	1.315 ± 0.012
313.15 K, 101 kPa, x1 = 0.08	1.437 ± 0.013
313.15 K, 101 kPa, x1 = 0.0899	1.543 ± 0.014
313.15 K, 101 kPa, x1 = 0.092	1.703 ± 0.039
313.15 K, 101 kPa, x1 = 0.1	1.671 ± 0.015
313.15 K, 101 kPa, x1 = 0.1362	2.278 ± 0.05
313.15 K, 101 kPa, x1 = 0.1913	2.952 ± 0.061
313.15 K, 101 kPa, x1 = 0.2619	4.008 ± 0.077
313.15 K, 101 kPa, x1 = 0.3556	5.698 ± 0.097
313.15 K, 101 kPa, x1 = 0.4862	8.384 ± 0.12
313.15 K, 101 kPa, x1 = 0.6804	12.88 ± 0.13
313.15 K, 101 kPa, x2 = 0.97	0.9218 ± 0.0086
318.15 K, 101 kPa, x1 = 0.0101	0.667 ± 0.007
318.15 K, 101 kPa, x1 = 0.02	0.743 ± 0.007
318.15 K, 101 kPa, x1 = 0.03	0.819 ± 0.008
318.15 K, 101 kPa, x1 = 0.0399	0.904 ± 0.009
318.15 K, 101 kPa, x1 = 0.0501	0.99 ± 0.009
318.15 K, 101 kPa, x1 = 0.0598	1.078 ± 0.01
318.15 K, 101 kPa, x1 = 0.07	1.168 ± 0.011
318.15 K, 101 kPa, x1 = 0.08	1.268 ± 0.012
318.15 K, 101 kPa, x1 = 0.0899	1.361 ± 0.013
318.15 K, 101 kPa, x1 = 0.1	1.466 ± 0.014
323.15 K, 100 kPa, x1 = 0.2	2.308 ± 0.033
323.15 K, 100 kPa, x1 = 0.4	4.7 ± 0.08
323.15 K, 100 kPa, x1 = 0.6	7.261 ± 0.14
323.15 K, 100 kPa, x1 = 0.8	9.984 ± 0.21
323.15 K, 101 kPa, x1 = 0.0101	0.611 ± 0.006
323.15 K, 101 kPa, x1 = 0.02	0.678 ± 0.007
323.15 K, 101 kPa, x1 = 0.0256	0.7514 ± 0.018
323.15 K, 101 kPa, x1 = 0.03	0.744 ± 0.007
323.15 K, 101 kPa, x1 = 0.0558	0.9714 ± 0.023
323.15 K, 101 kPa, x1 = 0.092	1.282 ± 0.029
323.15 K, 101 kPa, x1 = 0.1362	1.644 ± 0.036
323.15 K, 101 kPa, x1 = 0.1913	2.138 ± 0.044
323.15 K, 101 kPa, x1 = 0.2619	2.813 ± 0.054
323.15 K, 101 kPa, x1 = 0.3556	3.891 ± 0.066
323.15 K, 101 kPa, x1 = 0.4862	5.583 ± 0.079
323.15 K, 101 kPa, x1 = 0.6804	8.332 ± 0.081
